This is an account of results in publication PMC10793205, “Differential transmetallation of complexes of the anti-cancer thiosemicarbazone, Dp4e4mT: effects on anti-proliferative efficacy, redox activity, oxy-myoglobin and oxy-hemoglobin oxidation” (Chemical Science, 2023).

Where two headings read alike, the source gives them in different places.

The subject of one data set is human tumor xenografts. To be noted: cited from earlier work; for efficacy against a lung tumor xenograft: in vivo after oral administration.
For data set [1] the following is noted: mice, cited from earlier work.
The nature of data set [2]: Transmetallation kinetics with Cu(OAc)2 in aqueous solution pH 7.4 / pH 5 (UV-vis). The class given is physicochemical. To be noted: for Observed pseudo first order rate constant kobs, Cu(OAc)2 in water pH 5 (only or first step): 10-fold excess of Cu(OAc)2, water pH 5, 25 °C; for Observed pseudo first order rate constant kobs, Cu(OAc)2 in water pH 7.4: 10-fold excess of Cu(OAc)2, water pH 7.4, 25 °C. The protocol:
Transmetallation studies were also conducted using UV-vis spectroscopy in aqueous solutions at pH 7.4 (phosphate buffer; 100 mM) and pH 5 (acetate buffer; 150 mM) to simulate physiological conditions, as thiosemicarbazones of this class transverse the cytosol (pH 7.4) to target lysosomes (pH 5), where transmetallation occurs.[25,26,28] Studies in aqueous solution were important to compare the results performed in DMSO above so as to interpret the biological studies and particularly the redox assays below where the same pH values were employed.
Transmetallation of the complexes of Dp4e4mT with Cu(OAc)2 in water was possible as it is soluble in aqueous solution at pH 7.4 and 5, while FeCl3 precipitates under these conditions and cannot be assessed. […] The UV-vis spectra of all complexes in water (ca. 10 μM solutions) are compared in Fig. S17 ^† and mirror the spectra in DMSO (see Experimental section). The spectra of [Fe(Dp4e4mT)2]^+, [Co(Dp4e4mT)2]^+, and [Pd(Dp4e4mT)Cl] are similar, and display an asymmetric maximum around 393 nm with a prominent shoulder (∼450 nm). The [Ni(Dp4e4mT)2] spectrum is similarly asymmetric, although the peak intensities are reversed relative to the Fe(III), Co(III), and Pd(II) spectra (Fig. S17 ^†). […] The spectrum of [Zn(Dp4e4mT)2] is unique in this group, with a symmetrical peak at ∼400 nm.
Table S2. Observed pseudo first order rate constants (k obs, s−1) for reactions of each Dp4e4mT complex with a 10-fold excess of Cu(OAc) 2 or FeCl 3 in DMSO or water (pH 7.4 or 5.0) at 25 °C. […]
[Co(Dp4e4mT)2]+ No reaction No reaction No reaction No reaction […]
a Reaction could not be deciphered by UV-Vis spectroscopy; bchlorido ligand hydrolysis

For `CCN(C)C(=S)NN=C(c1ccccn1)c1ccccn1` [Dp4e4mT, di-2-pyridylketone-4-ethyl-4-methyl-3-thiosemicarbazone], the “efficacy against a lung tumor xenograft” value with human tumor xenografts is given as “potent efficacy against a lung tumor xenograft”. In data set [1], the cardiac fibrosis result was “did not induce cardiac fibrosis in mice”.
Regarding `CN(C)C(=S)NN=C(c1ccccn1)c1ccccn1` [Dp44mT, di-2-pyridylketone 4,4-dimethyl-3-thiosemicarbazone, reference compound], in the data set with human tumor xenografts (nude mice, 0.4 mg per kg per day), the “inhibition of human tumor xenografts” value is on record as “selectively inhibited a variety of human tumor xenografts in nude mice”. For the same compound, in data set [1] (intravenous, intensive non-optimal doses), the cardiac fibrosis result is “demonstrated cardiac fibrosis”.
For `CN(C(=S)NN=C(c1ccccn1)c1ccccn1)C1CCCCC1` [DpC, di-2-pyridylketone 4-cyclohexyl-4-methyl-3-thiosemicarbazone, reference compound], the “efficacy against a lung tumor xenograft” value in the data set with human tumor xenografts is recorded as “potent efficacy against a lung tumor xenograft”. In addition, in data set [1], the cardiac fibrosis result was “did not induce cardiac fibrosis in mice”.
`CCN(C)C([S-])=NN=C(c1ccccn1)c1ccccn1.CCN(C)C([S-])=NN=C(c1ccccn1)c1ccccn1.[Co+3]` [[Co(Dp4e4mT)2]^+]: in data set [2], the “Observed pseudo first order rate constant kobs, Cu(OAc)2 in water pH 5 (only or first step)” value was “No reaction” and the “Observed pseudo first order rate constant kobs, Cu(OAc)2 in water pH 7.4” value is “No reaction”.
On to `CCN(C)C([S-])=NN=C(c1ccccn1)c1ccccn1.CCN(C)C([S-])=NN=C(c1ccccn1)c1ccccn1.[Fe+3]` [[Fe(Dp4e4mT)2]^+], for which, in data set [2] (aqueous, pH 7.4 and 5.0), the “kobs, decay of the 500 nm shoulder after Cu(OAc)2” value worked out at 0.00073 s⁻¹ and the “t½, decay of the 500 nm shoulder after Cu(OAc)2” value was approximately 15 min.
For `CCN(C)C([S-])=NN=C(c1ccccn1)c1ccccn1.CCN(C)C([S-])=NN=C(c1ccccn1)c1ccccn1.[Ga+3]` [[Ga(Dp4e4mT)2]^+], in data set [2], the “Observed pseudo first order rate constant kobs, Cu(OAc)2 in water pH 5 (only or first step)” value is listed as more than 0.1 s−1 and the “Observed pseudo first order rate constant kobs, Cu(OAc)2 in water pH 7.4” value is recorded as more than 0.1 s−1. The “t½, spectral change without added Cu(OAc)2” value in data set [2] (aqueous pH 7.4, no Cu(OAc)2) is approximately 0.5 min. Besides, the kobs, spectral change without added Cu(OAc)2 in data set [2] (aqueous pH 7.4, no Cu(OAc)2, λmax shift ∼415 nm to 400 nm) was 0.022 s⁻¹.
For `CCN(C)C([S-])=NN=C(c1ccccn1)c1ccccn1.CCN(C)C([S-])=NN=C(c1ccccn1)c1ccccn1.[Ni+2]` [[Ni(Dp4e4mT)2]], the “Observed pseudo first order rate constant kobs, Cu(OAc)2 in water pH 7.4” value in data set [2] is given as “No reaction”. The “t½, faster step with Cu(OAc)2 at pH 5” value in data set [2] (aqueous pH 5, first of two consecutive first order reactions) is on record as approximately 4 min.
Consider `CCN(C)C([S-])=NN=C(c1ccccn1)c1ccccn1.CCN(C)C([S-])=NN=C(c1ccccn1)c1ccccn1.[Zn+2]` [[Zn(Dp4e4mT)2]], for which, in data set [2], the “Observed pseudo first order rate constant kobs, Cu(OAc)2 in water pH 5 (only or first step)” value is on record as more than 0.1 s−1 and the “Observed pseudo first order rate constant kobs, Cu(OAc)2 in water pH 7.4” value is more than 0.1 s−1.
